Columns and labels:
[1] = Pharmacokinetic evaluation I in ICR mice; format: in vivo; conditions: mouse, plasma, po; for bioavailability: p.o. 5 mg/kg, i.v. 1 mg/kg, read-out: Oral bioavailability (F); for AUC(0-t) / Cmax / half-life: 5 mg/kg
Method: Biological Example 2 Pharmacokinetic Evaluation I
ICR mice were weighed after an overnight fast for 15 h, and then randomly divided into groups according to body weight. The test compounds were formulated in a vehicle of 10% DMSO 10% kolliphor HS15^+ 80% Saline. For the test group administered intravenously (indicated by i.v.), the test animals were administered a dose of 1 mg/kg; for the test group administered by oral administration (indicated by p.o.), the test animals were administered a dose of 5 mg/kg. Then, at time points 0, 0.083 (intravenous injection group only), 0.25, 0.5, 1.0, 2.0, 5.0, 7.0 and 24 h, venous blood (approximately 0.2 mL) was collected and placed in an EDTAK2 anticoagulation tube, then centrifuged at 11,000 rpm for 2 min. Plasma was collected and stored at −20° C. or −70° C. until LC/MS/MS analysis. The drug concentration in plasma was measured at each time point, and the pharmacokinetic parameters were calculated according to the drug concentration-time curve.

[2] = Stability in human liver microsomes; format: in vitro ADME; conditions: pH 7.4; for half-life at 1.5 μM: human liver microsomes 0.5 mg protein/mL, compound 1.5 μM, NADPH, 37° C., read-out: Half-life t1/2; for CLint scaled at 1.5 μM: human liver microsomes, inferred in vivo intrinsic hepatic clearance rate
Method: (§1) Biological Example 4 Stability of the Compounds of the Present Invention in Human and Rat Liver Microsomes
(§2) Human or rat liver microsomes were incubated in double wells in polypropylene tubes. A typical incubation mixture included human or rat liver microsomes (final concentration: 0.5 mg protein/mL), target compound (final concentration: 1.5 μM), and K-phosphate buffered solution (containing […] EDTA, 100 mM, pH=7.4) in a total volume of 30 μL. Compounds were dissolved in DMSO and diluted with K-phosphate buffered solution to give a final working solution concentration of 30 μM. After 10 min of pre-incubation, 25 μL of test compound or positive control solution was transferred to the microsomal solution. The mixture was mixed well and 30 μL of the mixture was immediately pipetted, ice-cold acetonitrile was added, then 15 μL of NADPH was added as T0. 15 μL of NADPH (final concentration: 2 mM) was added to 30 μL of the mixture for the enzymatic reaction, and the entire experiment was carried out in an incubation tube at 37° C. At various time points (0, 20 and 60 min), the reaction was stopped by adding 150 μL of acetonitrile (with internal standard). The protein was removed by centrifugation at 4000 rpm for 10 min, and the supernatant was collected and analyzed by LC-MS/MS.
(§3) For each reaction, the concentration of compound in the incubation of human or rat liver microsomes was plotted (expressed as a percentage) as a percentage relative to the zero time point to infer in vitro metabolic half-life and in vivo intrinsic hepatic clearance rate.

[3] = Stability in rat liver microsomes; format: in vitro ADME; conditions: pH 7.4; for half-life at 1.5 μM: rat liver microsomes 0.5 mg protein/mL, compound 1.5 μM, NADPH, 37° C., read-out: Half-life t1/2; for CLint scaled at 1.5 μM: rat liver microsomes, inferred in vivo intrinsic hepatic clearance rate
Method: as §1, §2, §3

RORγ = target: T1, RORγ (Homo sapiens, UniProt P51449); assay: Fluorescence resonance energy transfer (FRET) test, B-RORγ LBD / Biotin-SRC1; format: biochemical
T1 construct: The concentration of B-RORγ LBD was 40 nM
T1 sequence (P51449 269-508 limits assumed): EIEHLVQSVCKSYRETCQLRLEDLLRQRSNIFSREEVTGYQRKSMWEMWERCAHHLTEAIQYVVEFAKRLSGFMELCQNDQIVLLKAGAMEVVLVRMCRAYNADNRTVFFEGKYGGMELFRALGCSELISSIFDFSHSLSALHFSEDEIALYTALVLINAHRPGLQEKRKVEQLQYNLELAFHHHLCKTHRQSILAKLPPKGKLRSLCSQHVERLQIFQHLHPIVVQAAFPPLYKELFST
Outline: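 TR-FRET coactivator recruitment: biotinylated RORγ LBD (40 nM, 2× stock) on SA-APC with biotinylated SRC1 peptide (40 nM, 2× stock) on SA-Eu, in HEPES pH 7.4, 100 mM NaCl, 0.01% BSA, 10 mM DTT. Compounds in 11-point 3-fold DMSO series; 1 h room temperature. 665/615 ratio normalised to DMSO (Min) and 10 μM SRC (Max).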

Question: For `CCS(=O)(=O)c1ccc([C@H](CCO)NC(=O)c2ccc(N3C[C@@H](Oc4ccc(C(F)(F)F)cc4)C[C@H]3COC(F)F)cc2)cc1` [Example 91], which bioavailability [1] is on record?
Answer: 42%

Question: What about the AUC(0-t) [1] of the same molecule?
Answer: 21 µM·h

Question: And the Cmax [1]?
Answer: 1.9 µM

Question: And the half-life [1]?
Answer: 7.6 h

Question: What about the half-life at 1.5 μM [2] of the same molecule?
Answer: 6.93 h

Question: And the CLint scaled at 1.5 μM [2]?
Answer: 0.252 L/h/kg

Question: And the half-life at 1.5 μM [3]?
Answer: 2.37 h

Question: What about the CLint scaled at 1.5 μM [3] of the same molecule?
Answer: 2.28 L/h/kg

Question: For `CCS(=O)(=O)c1ccc([C@H](CCO)NC(=O)c2ccc(N3C[C@@H](Oc4ccc(OC(F)(F)F)cc4)C[C@H]3CF)cc2)cc1` [Example 117, N—((S)-1-(4-(ethylsulfonyl)phenyl)-3-hydroxypropyl)-4-((2S,4S)-2-(fluoromethyl)-4-(4-(trifluoromethoxy)phenoxy)pyrrolidin-1-yl)benzamide], which IC50 (RORγ) is on record?
Answer: 14 nM

Question: And the half-life at 1.5 μM [3]?
Answer: 6.12 h

Question: What about the CLint scaled at 1.5 μM [3] of the same molecule?
Answer: 0.228 L/h/kg

Question: For `CCS(=O)(=O)c1ccc([C@H](CO)NC(=O)c2ccc(N3C[C@@H](Oc4ccc(C(F)(F)F)cc4)C[C@H]3COC(F)(F)F)cc2)cc1` [Example 48, N—((R)-1-(4-(ethylsulfonyl)phenyl)-2-hydroxyethyl)-4-((2S,4S)-2-((trifluoromethoxy)methyl)-4-(4-(trifluoromethyl)phenoxy)pyrrolidin-1-yl)benzamide], which IC50 (RORγ) is on record?
Answer: 6.4 nM

Question: And the bioavailability [1]?
Answer: 50%

Question: And the AUC(0-t) [1]?
Answer: 20.9 µM·h

Question: What about the Cmax [1] of the same molecule?
Answer: 1.7 µM

Question: What about the half-life [1] of the same molecule?
Answer: 11.4 h

Question: What about the half-life at 1.5 μM [2] of the same molecule?
Answer: 10 h

Question: And the CLint scaled at 1.5 μM [2]?
Answer: 0.174 L/h/kg

Question: With `CCS(=O)(=O)c1ccc([C@H](CCO)NC(=O)c2ccc(N3C[C@@H](Oc4ccc(OC(F)(F)F)cc4)C[C@H]3COC(F)F)cc2)cc1` [Example 119, 4-((2S,4S)-2-((difluoromethoxy)methyl)-4-(4-(trifluoromethoxy)phenoxy)pyrrolidin-1-yl)-N—((S)-1-(4-(ethylsulfonyl)phenyl)-3-hydroxypropyl)benzamide] as the molecule, how does the IC50 (RORγ) read?
Answer: 9.2 nM

Question: And the bioavailability [1]?
Answer: 71%

Question: And the AUC(0-t) [1]?
Answer: 28.5 µM·h

Question: What about the Cmax [1] of the same molecule?
Answer: 2.38 µM

Question: What about the half-life [1] of the same molecule?
Answer: 6.5 h

Question: What about the half-life at 1.5 μM [2] of the same molecule?
Answer: 5.25 h

Question: What about the CLint scaled at 1.5 μM [2] of the same molecule?
Answer: 0.264 L/h/kg

Question: What about the half-life at 1.5 μM [3] of the same molecule?
Answer: 7.17 h

Question: And the CLint scaled at 1.5 μM [3]?
Answer: 0.192 L/h/kg

Question: What does the source list for `CCS(=O)(=O)c1ccc([C@H](CO)NC(=O)c2ccc(N3C[C@@H](Oc4ccc(C(F)(F)F)cc4)C[C@H]3COC(F)F)cc2)cc1` [Example 39]?
Answer: IC50 (RORγ): 3 nM; bioavailability [1]: 35%; AUC(0-t) [1]: 11.4 µM·h; Cmax [1]: 1.5 µM; half-life [1]: 3.9 h; half-life at 1.5 μM [2]: 3.53 h; CLint scaled at 1.5 μM [2]: 0.492 L/h/kg; half-life at 1.5 μM [3]: 5.62 h; CLint scaled at 1.5 μM [3]: 0.444 L/h/kg

Reference: patent US20230067159A1, “ROR-GAMMA-T INHIBITOR, PREPARATION METHOD THEREOF AND USE THEREOF” (priority 2020, published 2023)
